We go through ten molecules from paper PMC11905336, “Pyrrole‐Tethered Bisbenzoxazole Derivatives: Apoptosis‐Inducing Agents Targeting Breast Cancer Cells” (Chemical Biology & Drug Design, 2025).

Like-named read-outs stand apart in the source and are kept apart here.

The subject of one data set is MCF‐7. Details: method as in Desai et al. [2020]. As to conditions: ref Desai et al. [2020]; cited from earlier work.
The test system of a further data set is MDA‐MB‐231. Also noted: method as in Desai et al. [2020]. As to conditions: ref Desai et al. [2020]; cited from earlier work.
The subject of another data set is MCF‐7 cell line. Also noted: method as in earlier work. As to conditions: MCF-7, XTT assay, ref Kuzu, Hepokur, Alagoz, et al. [2022], Turkmenoglu; cited from earlier work. (In general: Formazan colour is commonly taken as a measure of viable cells.)
The subject of data set [1] is A549 and MCF‐7 cell lines. Details: method as in Belal and Abdelgawad [2017]. As to conditions: ref Belal and Abdelgawad [2017]; cited from earlier work.
The test system of a further data set is MCF‐7 cell lines. As to the kind of experiment: MTT assay, cytotoxicity on MCF-7 cells. The data set is classed as cell-based, human. As to conditions: for IC50: Homo sapiens, MTT; for IC50 in MCF-7 compared to tamoxifen (fold lower): MCF-7, MTT. As for the experimental part: The cytotoxic effects of PTB derivatives on MCF‐7 breast cancer cells were evaluated using the MTT assay at various concentrations (100 nM, 1 μM, 10 μM, 50 μM, and 100 μM).
(§1) The human dermal fibroblast (HDFa) and human breast cancer cells (MCF‐7) were obtained from the American Type Culture Collection (ATCC; Manassas, VA, USA). Cells were cultured in RPMI medium (MCF‐7) and DMEM medium (HDFa) was supplemented with 10% FBS, 1% penicillin–streptomycin, 1% amphotericin, and 2.5% L‐glutamine at 37°C in a 5% CO2 incubator.
MTT Method. The MTT method is used to detect and quantify living organisms cultured with the method colorimetrically. This method relies on intact mitochondria cleaving the tetrazolium ring of the MTT dye. The MTT substance is absorbed and reduced to a colorful, water‐insoluble formazan by a mitochondria‐dependent reaction. Cell viability is measured based on the MTT reduction property, and the density of dye obtained from MTT analysis indicates the number of viable cells. In this study, cell viability was assessed using the MTT (0.5 mg/mL) solution that was added to each well. […] After adding properties to cultures, they were kept at 37°C for 24 h and overnight. Then, at 48 and 72 h after applying the molecules, 10 μL of MTT was added to each well and incubated under similar conditions for 4 h. Absorbance spectrophotometry was performed at a wavelength of 570 nm using the IC50 = [(control absorbents‐sample absorbents)/control absorbents] × 100 calculation method (Khorsandi et al. [2017]).

The test system of the next data set is HDFa cell lines. Kind of data set: Cytotoxicity on healthy dermal fibroblasts (MTT / xCELLigence real-time cell analysis). The format is cell-based. As to conditions: Homo sapiens. As for the experimental part:
The cytotoxicity of these derivatives was also assessed in dermal fibroblast cells using xCELLigence analysis as detailed in the Supporting Information.
as §1
xCELLigence Real‐Time Cell Analysis. The xCELLigence system (Real‐Time Cell Analyzer (RTCA) Dual Plate (DP) (Roche Diagnostics GmbH, Penzberg)) was used for real‐time monitoring of cell viability without the need for labeling. A total of 1 × 10^4 HDFa cells were seeded into each well of the E‐plate, and the cell proliferation curve was monitored for 24 h. […] The Cell Index (CI) value was automatically measured every hour for each well using RTCA Software (version 1.2.1) (Yetkin et al. [2021]; Yıldırım et al. [2022]).

The subject of data set [2] is MCF‐7 cells. Kind of data set: Apoptosis/necrosis by flow cytometry, Annexin V/propidium iodide, MCF-7. The format is cell-based, human. As to conditions: MCF-7, 48 h, p < 0.05. The procedure:
Flow cytometry analysis was performed to evaluate the percentages of apoptosis for these compounds compared to tamoxifen. MCF‐7 cell suspensions treated with each compound for 48 h were stained using an apoptosis detection kit and subsequently analyzed using flow cytometry.
(§2) The assessment of apoptosis through flow cytometry is a valuable method for obtaining quantitative results to determine the levels of apoptosis and necrosis in cells. In our study, the 48th‐hour apoptosis levels of three synthases with the lowest IC50 values (PTB derivatives B8, B14, and B18) were evaluated. To assess apoptosis levels, MCF‐7 cells and healthy fibroblast cells were incubated with these synthases for 48 h. After this incubation period, the cells were treated with Annexin‐V APC and PE propidium iodide (PI) dyes to examine apoptosis levels. Then, to examine the levels of apoptosis, the cells were incubated at a concentration of 2 × 10^5 cells/mL with 5 μL Annexin‐V APC and 10 μL PI dyes in 100 μL Binding buffer for 15 min at room temperature. Samples were then washed twice in PBS, and the BD FACS ARIA III flow cytometry device was used to determine the percentage of apoptotic cells. (Ayaz et al. [2022]).
(In flow cytometry, cells or beads pass a laser one at a time.)

The subject of data set [3] is HeLa and HepG2 cell lines. Also noted: method as in Srivastava et al. [2015]. As to conditions: ref Srivastava et al. [2015]; cited from earlier work.
Data set [4] deals with MCF‐7 cells. As to the kind of experiment: Cell cycle phases by flow cytometry with propidium iodide, MCF-7. The data set is classed as cell-based, human. As to conditions: for Change of G2 phase averages vs control: MCF-7, 48 h at IC50; for Change of G1 phase vs control / Change of S phase vs control: MCF-7, 48 h at IC50, p < 0.05. As for the experimental part: In the flow cytometry analysis, cell cycle kits facilitated the removal of cytoskeletal and nuclear proteins by disrupting lipid components of the cell membrane using detergents. […] Consequently, we were able to identify abnormal DNA distributions and cell cycle phase profiles in the MCF‐7 breast cancer cell line.
MCF‐7 cells were seeded in a 6‐well plate at a density of 1 × 10^6 cells and incubated for 24 h. […] MCF‐7 cells were then trypsinized, stained, and analyzed using a BD FACSAria III flow cytometer (BD Biosciences, Bedford, MA, USA) with FACS Diva Software and ModFit LT.
The cell cycle kit (MCE USA‐HY‐K1071‐50 T) works on the principle of dissolving the lipids in the cell membrane with the help of detergents. This kit was used to identify cells with abnormal DNA and cell cycle phase distributions in a breast cancer cell line. It was analyzed by removing the cytoskeleton and nuclear proteins with the help of trypsin and digesting the cellular RNA by enzymes. Cells were seeded at 1 × 10^6 in a 6‐well plate and incubated for 24 h. […] Cells were removed by adding trypsin to adherent cells. They were centrifuged at 1000 g for 3–5 min at 4°C, and then the supernatant was discarded. One milliliter of prechilled PBS was added to resuspend the cells, centrifuged at 1000 g for 3–5 min at 4°C, and detected via BD FACSAria III flow cytometer (BD Biosciences, Bedford, MA, USA). Percentage data were obtained using FACS Diva Software and ModFit LT (Şimşek et al. [2020]).

In a further data set the test system is HDFa cells. As to the kind of experiment: Apoptosis/necrosis by flow cytometry, Annexin V/propidium iodide, HDFa. The data set is classed as cell-based, human. As to conditions: 48 h, same concentrations as in MCF-7, p < 0.05. As for the experimental part: Subsequently, flow cytometry analysis was conducted on HDFa cells.
as §2

In data set [5] the test system is MCF‐7 cells. Details: method as in earlier work. As to conditions: MCF-7, cell cycle analysis, ref Kuzu, Hepokur, Alagoz, et al. [2022], Turkmenoglu; cited from earlier work.
Data set [6] concerns A549, A498, HeLa, and HepG2. Details: method as in Ersan et al. [2020]. As to conditions: ref Ersan et al. [2020], cited from earlier work.
Another data set concerns Vero healthy cell line. Details: method as in Ersan et al. [2020]. As to conditions: ref Ersan et al. [2020]; cited from earlier work.
Setting [7] is: MCF7, read-out: IC50 (μM) for MCF‐7 cell lines, 48 h.
[8] abbreviates: MCF7, 24 h, read-out: IC50 (μM) for MCF‐7 cell lines, 24 h.
[9] abbreviates: MCF7, 72 h, read-out: IC50 (μM) for MCF‐7 cell lines, 72 h.
Setting [10] is: 24 h, values greater than 100 not calculated, read-out: IC50 (μM) for HDFa cell lines, 24 h.
The mark [11] stands for this setting: 72 h, values greater than 100 not calculated, read-out: IC50 (μM) for HDFa cell lines, 72 h.
Setting [12] is: read-out: IC50 (μM) for HDFa cell lines, 48 h, values greater than 100 not calculated.

Usually IC50 stands for the concentration at which inhibition is half-maximal. As for `c1ccc2nc(-c3nc4ccccc4o3)cnc2c1` [Compound 12], the IC50 was 0.53 µM with MCF‐7 and 0.5 µM in the data set with MDA‐MB‐231.

Consider `O=c1[nH]cc(F)c(=O)[nH]1` [5‐FU, 5‐fluorouracil], for which the IC50 in the data set on MCF‐7 cell line was 5.06 µM.

As for `c1ccc(-c2cc(-c3nc4ccccc4o3)[nH]n2)cc1` [Compound 11], in data set [1], the IC50 was 0.12 to 0.19 µM.

Turning to `COc1ccc2oc(-c3ccc(-c4nc5ccccc5o4)[nH]3)nc2c1` [Compound B8, 2‐(5‐(Benzo[d]Oxazol‐2‐Yl)‐1H‐Pyrrol‐2‐Yl)‐5‐Methoxybenzo[d]Oxazole], the concentration for half-maximal inhibition (IC50) is 1.89 ± 0.12 µM in the data set on MCF‐7 cell lines (setting [7]); 4.4 ± 0.79 µM in the data set with MCF‐7 cell lines (setting [8]); 3.09 ± 0.21 µM in the data set with MCF‐7 cell lines (setting [9]); at least 100 µM in the data set with HDFa cell lines (setting [10]); at least 100 µM with HDFa cell lines (setting [11]); at least 100 µM in the data set with HDFa cell lines (setting [12]). Moreover, the “IC50 in MCF-7 compared to tamoxifen (fold lower)” value (“IC50 … (fold lower)” for short) in the data set with MCF‐7 cell lines was “approximately 8 fold”. In the data set on MCF‐7 cells [2], the “Secondary apoptosis vs control” value is “significantly elevated”.

Take `c1ccc(Cn2nnc(-c3ccccc3)c2-c2nc3ccccc3o2)cc1` [Compound 10]: in data set [3], the IC50 was 5 to 30 mg/L.

For `COC(=O)c1ccc2nc(-c3ccc(-c4nc5cc(C)ccc5o4)[nH]3)oc2c1` [Compound B14, Methyl 2‐(5‐(5‐Methylbenzo[d]Oxazol‐2‐Yl)‐1H‐Pyrrol‐2‐Yl)benzo[d]Oxazole‐6‐Carboxylate], the IC50 in the data set on MCF‐7 cell lines (setting [7]) was 0.95 ± 1.01 µM; with MCF‐7 cell lines (setting [8]), 3.28 ± 0.74 µM; with MCF‐7 cell lines (setting [9]), 3.02 ± 2.18 µM; with HDFa cell lines (setting [10]), 94.5 ± 1.37 µM; with HDFa cell lines (setting [11]) it was 97.4 ± 2.83 µM; with HDFa cell lines (setting [12]), 96.3 ± 1.38 µM. Also, the “IC50 … (fold lower)” value with MCF‐7 cell lines is recorded as “approximately 8 fold”. The “Necrosis percentage vs control” value in the data set with MCF‐7 cells [2] is “significant changes in all groups except for the B14 group”. Besides, the “Change of G2 phase averages vs control” value in the data set with MCF‐7 cells [4] is given as “No significant changes”. For the same molecule, the “Change of G1 phase vs control” value with MCF‐7 cells [4] is on record as “significant increase”. Moreover, the “Change of S phase vs control” value with MCF‐7 cells [4] is “corresponding decrease”.

For the molecule `COC(=O)c1ccc2nc(-c3ccc(-c4nc5cc(OC)ccc5o4)[nH]3)oc2c1` [Compound B18, Methyl 2‐(5‐(5‐Methoxybenzo[d]Oxazol‐2‐Yl)‐1H‐Pyrrol‐2‐Yl)benzo[d]Oxazole‐6‐Carboxylate], the IC50 in the data set on MCF‐7 cell lines (setting [7]) is 1.3 ± 0.98 µM; in the data set on MCF‐7 cell lines (setting [8]) it was 3.53 ± 1.35 µM; in the data set on MCF‐7 cell lines (setting [9]) it was 2.69 ± 0.73 µM; in the data set on HDFa cell lines (setting [10]) it was 98.3 ± 1.58 µM; in the data set on HDFa cell lines (setting [11]), at least 100 µM; in the data set with HDFa cell lines (setting [12]), at least 100 µM. Also, the “IC50 … (fold lower)” value in the data set on MCF‐7 cell lines was “approximately 8 fold”. For the same molecule, the “Secondary apoptosis vs control” value in the data set on MCF‐7 cells [2] is “significantly elevated”. In addition, the “Average number of viable cells vs control” value in the data set with HDFa cells is on record as “significant decrease”. In addition, the “Percentage of necrosis vs control” value in the data set with HDFa cells is “notable increase”. Besides, the “Change of G2 phase averages vs control” value in the data set with MCF‐7 cells [4] is on record as “No significant changes”. Besides, the “Change of G1 phase vs control” value in the data set with MCF‐7 cells [4] is reported as “significant increase”. In addition, in the data set with MCF‐7 cells [4], the “Change of S phase vs control” value is on record as “corresponding decrease”.

`COc1ccc2oc(C(=O)N3CCCCC3)nc2c1` [Compound 14]: the G0/G1 phase arrest in the data set with MCF‐7 cells [5] is on record as 71.2%.

Turning to `c1ccc2oc(CNCc3nc4ccccc4o3)nc2c1` [Compound 16], the half-inhibitory concentration (IC50) in data set [6] (range across A549, A498, HeLa, HepG2) was 0.56 to 2.24 µM. Also, the “Selectivity for A549 lung cancer cell line compared to other tested cancer cell lines” value in data set [6] is “fourfold higher selectivity”. The “Cytotoxicity against Vero healthy cell line” value in the data set on Vero healthy cell line is “minimal cytotoxicity”.

`CC/C(=C(\c1ccccc1)c1ccc(OCCN(C)C)cc1)c1ccccc1` [Tamoxifen, reference compound]: in the data set on MCF‐7 cells [2], the “Secondary apoptosis vs control” value is reported as “significantly elevated”. Further, in the data set on HDFa cells, the “Average number of viable cells vs control” value is “significant decrease” and the “Percentage of necrosis vs control” value is recorded as “notable increase”. Besides, in the data set on MCF‐7 cells [4], the “Change of G2 phase averages vs control” value is listed as “No significant changes”, the “Change of G1 phase vs control” value is given as “significant increase” and the “Change of S phase vs control” value is on record as “corresponding decrease”.
